The source of these data is paper PMC13335744, “Functional Analysis of Ligand‐Gated Chloride Channels in a Cnidarian Sheds Light on the Evolution of Inhibitory Signaling” (Advanced Science, 2026).

One data set has as its system nvpLGIC‐1 – nvpLGIC‐7. Briefly: Ligand screen by two-electrode voltage clamp, nvpLGIC‐1 – nvpLGIC‐7 expressed individually in Xenopus oocytes. The data set is classed as cell-based, Nematostella vectensis. The conditions noted are these: for evoked currents: 1 µM–1 mM. As for the experimental part: Approximately 2–5 ng of cRNA of nvpLGICs were injected into Xenopus laevis oocytes of stages V and VI. Injected oocytes were incubated at 19 °C in oocyte Ringer's solution (OR‐2) containing (in mM): 82.5 NaCl, 2.5 KCl, 1.0 Na2HPO4,1.0 MgCl2, 1.0 CaCl2, 5.0 HEPES, 0.5 g l^−1 PVP, 1000 U l^−1 penicillin, and 10 mg l^−1 streptomycin. pH was adjusted to 7.3 using NaOH.
(§1) For electrophysiology, whole‐oocyte currents were measured two days after injection using a two‐electrode voltage clamp (TEVC) set‐up with a TurboTec 03X amplifier (npi electronic GmbH, Tamm, Germany) and a pump‐driven solution exchange system combined with the oocyte testing carousel (OTC), controlled by the interface OTC‐20. For nvGluCl‐1, the His‐tagged version was functionally characterized. Standard bath solution contained (in mM): 140 NaCl, 10 HEPES, 1.8 CaCl2, and 1.0 MgCl2, pH was adjusted to 7.4 using NaOH. Solution exchange was controlled using the CellWorks 5.1.1 software (npi electronic). Data were sampled at 0.1–1 kHz and filtered at 20 Hz. Holding potential was −70 mV.

For the next data set, the system named is nematocytes. Also noted: method as in PMID 32452384. The conditions noted are these: cited from earlier work.
The subject of another data set is nvGluCl‐2 K229 mutants. Put plainly: Two-electrode voltage clamp of oocytes expressing nvGluCl‐2 with substitutions of K229 (K229T, K229R, K229M). The data set is classed as cell-based, Nematostella vectensis. The text has this:
Full‐length DNA sequences of […] subunits were identified and cloned based on bulk and single cell transcriptomes of N. vectensis. nvpLGIC‐1 – nvpLGIC‐4 were cloned in oocyte expression vector pRSSP6009 [72]. nvpLGIC‐5 and […] DNA sequences were synthesized and cloned in the pCDNA3.1 (‐) vector (BioCat GmbH). They were then subcloned in the vector pRSSP6009 (nvpLGIC‐6) or pRSSP 6013 (nvpLGIC‐5). Site‐directed mutations were introduced in nvGluCl‐2 to create the mutants at position K229, using the Quick‐change mutagenesis method. nvpLGIC‐1 – nvpLGIC‐6 subunits were fused with His6‐tags at their C‐terminus using PCR. His6‐tags were incorporated just before the stop codon without changing any other amino acids. All final constructs were sequenced for confirmation. […]
For electrophysiology, whole‐oocyte currents were measured two days after injection using a two‐electrode voltage clamp (TEVC) set‐up with a TurboTec 03X amplifier (npi electronic GmbH, Tamm, Germany) and a pump‐driven solution exchange system combined with the oocyte testing carousel (OTC), controlled by the interface OTC‐20. […]
(Two-electrode voltage clamp holds a large cell at a set potential and records current.)

Another data set relates to nvGluCl‐1 (nvpLGIC‐1). Briefly: Two-electrode voltage clamp of Xenopus oocytes expressing nvGluCl‐1 (nvpLGIC‐1). The format is cell-based, Nematostella vectensis. As for the experimental part:
(§2) Approximately 2–5 ng of cRNA of nvpLGICs were injected into Xenopus laevis oocytes of stages V and VI.
as §1, with “For nvGluCl‐1, the His‐tagged version was functionally characterized.” left out
(§3) Electrophysiological data were analyzed offline, and current amplitudes were assessed using CellWorks Reader 6.2.2 (npi electronic GmbH, Tamm, Germany). Concentration‐response relationships were normalized to the currents obtained with a saturating concentration (I/Imax ). The mean of normalized amplitudes was plotted as a function of ligand concentrations.
(§4) Desensitization kinetics and recovery from desensitization were fitted to a mono‐exponential function: (2) y=yo+Ae^−x/τ where yo is the offset, A is the amplitude, and τ is the time constant.

In another data set the test system is nvGluCl‐2 (nvpLGIC‐2). Briefly: Two-electrode voltage clamp of Xenopus oocytes expressing nvGluCl‐2 (nvpLGIC‐2). The data set is classed as cell-based, Nematostella vectensis. The procedure:
as §2
as §1, with “For nvGluCl‐1, the His‐tagged version was functionally characterized.” left out
as §3, §4

The next data set deals with nvGluCl‐3 (nvpLGIC‐6). Put plainly: Two-electrode voltage clamp of Xenopus oocytes expressing nvGluCl‐3 (nvpLGIC‐6). The format is cell-based, Nematostella vectensis. The procedure: as §2
as §1, with “For nvGluCl‐1, the His‐tagged version was functionally characterized.” left out
as §3, §4

Data set [1] addresses nvpLGIC-1 (Nematostella vectensis pentameric ligand-gated ion channel subunit 1), C-terminal His6 (Nematostella vectensis). Briefly: native gel or EMSA; blue native PAGE of C-terminally His-tagged receptors expressed in Xenopus laevis oocytes, solubilised with digitonin and purified under non-denaturing conditions on Ni-NTA; run native and partially denatured (SDS 1 h at 37°C; methods say LiDS) to count lower-order intermediates; surface pool detected by IR800 fluorescence, total pool by 35S phosphorimaging. In general terms: A gel shift assay detects complexes by their altered migration in electrophoresis.

Data set [2] concerns the target nvpLGIC-3 (Nematostella vectensis pentameric ligand-gated ion channel subunit 3), C-terminal His6 (Nematostella vectensis). The data set is described as above.
For data set [3], the target named is nvpLGIC-5 (Nematostella vectensis pentameric ligand-gated ion channel subunit 5), C-terminal His6 (Nematostella vectensis). Described as above.
Data set [4] deals with the molecule itself. Described as above.
[5] abbreviates: also with a mix of nvpLGIC‐1 – nvpLGIC‐7, nvpLGIC‐7 not tested individually.
Where [6] appears, read: at 500 µM glutamate, single exponential fit.
[7] abbreviates: read-out: EC50, half‐maximal activation, TEVC, holding potential −70 mV.

Consider `N[C@H](CO)C(=O)O` [D‐serine], for which the elicited currents result in the data set on nvpLGIC‐1 – nvpLGIC‐7 (1 mM) is “did not elicit currents”.

As to `NCCCC(=O)O` [GABA, γ‐aminobutyric acid], in the data set on nematocytes, the elicited currents result is “neither Glu nor GABA elicit currents”. Further, in the data set with nvpLGIC‐1 – nvpLGIC‐7, the evoked currents entry is “neither GABA nor glycine (1 µM–1 mM) evoked currents”. Moreover, in the data set with nvGluCl‐2 K229 mutants, the “activation of K229 mutant channels” value is listed as “still not activated”.

Regarding `CC(=O)OCC[N+](C)(C)C` [acetylcholine], the elicited currents entry with nematocytes is on record as “elicits an inward Ca^2+ current”; in the data set with nvpLGIC‐1 – nvpLGIC‐7 (1 mM), “did not elicit currents”.

For the molecule `N[C@@H](CC(=O)O)C(=O)O` [aspartate], in the data set with nvpLGIC‐1 – nvpLGIC‐7 (setting [5]), the elicited currents result is “did not elicit currents”.

In the case of `N[C@@H](CCC(=O)O)C(=O)O` [glutamate], the evoked currents result in the data set with nvGluCl‐1 (nvpLGIC‐1) (100 µM), in the data set on nvGluCl‐2 (nvpLGIC‐2) (100 µM) and in the data set on nvGluCl‐3 (nvpLGIC‐6) (100 µM) was “evoked large currents” in each case. Besides, the entries for the “time constant of desensitization, τdes” value in the data set with nvGluCl‐1 (nvpLGIC‐1) (setting [6]), with nvGluCl‐2 (nvpLGIC‐2) (setting [6]) and in the data set with nvGluCl‐3 (nvpLGIC‐6) (setting [6]) were 26 ± 3 ms, 111 ± 47 ms and 161 ± 93 ms, respectively. For the same molecule, the EC50 was 16 µM in the data set with nvGluCl‐1 (nvpLGIC‐1) (read-out: EC50, half‐maximal activation, TEVC, holding potential −70 mV, His‐tagged version); 102 µM in the data set with nvGluCl‐2 (nvpLGIC‐2) (setting [7]); 7 µM in the data set on nvGluCl‐3 (nvpLGIC‐6) (setting [7]). Besides, the figures for the “recovery from desensitization, τrecovery” value in the data set on nvGluCl‐2 (nvpLGIC‐2) (30 s desensitizing pulse of 100 µM glutamate) and in the data set on nvGluCl‐3 (nvpLGIC‐6) (desensitization by 30 µM glutamate for 30 s) were 31 s and 38 s, respectively. Besides, the elicited currents result in the data set on nematocytes is given as “neither Glu nor GABA elicit currents”. Moreover, in the data set on nvGluCl‐2 K229 mutants (10 mM glutamate), the “response to glutamate of K229T, K229R, K229M mutants” value is “almost completely abolished the response”.

Consider `NC(=O)CC[C@H](N)C(=O)O` [glutamine], for which the elicited currents entry in the data set on nvpLGIC‐1 – nvpLGIC‐7 (setting [5]) was “did not elicit currents”.

As to `NCC(=O)O` [glycine], the evoked currents entry in the data set with nvpLGIC‐1 – nvpLGIC‐7 is reported as “neither GABA nor glycine (1 µM–1 mM) evoked currents”.

For `NCCc1c[nH]cn1` [histamine], in the data set on nvpLGIC‐1 – nvpLGIC‐7 (setting [5]), the elicited currents result is “did not elicit currents”.

In the case of `NCCc1c[nH]c2ccc(O)cc12` [serotonin], the elicited currents entry in the data set with nvpLGIC‐1 – nvpLGIC‐7 (1 mM) is listed as “did not elicit currents”.

With `NCCC(=O)O` [β‐alanine], the elicited currents result with nvpLGIC‐1 – nvpLGIC‐7 (setting [5]) was “did not elicit currents”.

Regarding “nvpLGIC-1 (Nematostella vectensis pentameric ligand-gated ion channel subunit 1), C-terminal His6 (receptor)”, the stoichiometry N in [1] was determined as 5.

The molecule “nvpLGIC-3 (Nematostella vectensis pentameric ligand-gated ion channel subunit 3), C-terminal His6 (receptor)” registered a stoichiometry N in data set [2] of 5.

As for “nvpLGIC-5 (Nematostella vectensis pentameric ligand-gated ion channel subunit 5), C-terminal His6 (receptor)”, in data set [3], the stoichiometry N stood at 5.

For picrotoxin [PTx], in the data set on nvGluCl‐2 (nvpLGIC‐2) (100 µM glutamate, read-out: apparent IC50, inhibition of glutamate-evoked current), the IC50 is about 10 µM.

B1: human GABAA receptor β3 subunit (hGABRB3), His-tagged (receptor, UniProt P28472 26-473, looked up)
chain: QSVNDPGNMSFVKETVDKLLKGYDIRLRPDFGGPPVCVGMNIDIASIDMVSEVNMDYTLTMYFQQYWRDKRLAYSGIPLNLTLDNRVADQLWVPDTYFLNDKKSFVHGVTVKNRMIRLHPDGTVLYGLRITTTAACMMDLRRYPLDEQNCTLEIESYGYTTDDIEFYWRGGDKAVTGVERIELPQFSIVEHRLVSRNVVFATGAYPRLSLSFRLKRNIGYFILQTYMPSILITILSWVSFWINYDASAARVALGITTVLTMTTINTHLRETLPKIPYVKAIDMYLMGCFVFVFLALLEYAFVNYIFFGRGPQRQKKLAEKTAKAKNDRSKSESNRVDAHGNILLTSLEVHNEMNEVSGGIGDTRNSAISFDNSGIQYRKQSMPREGHGRFLGDRSLPHKKTHLRRRSSQLKIKIPDLTDVNAIDRWSRIVFPFTFSLFNLVYWLYYVN
modifications: metabolically labelled with [35S]methionine; surface pool labelled with the lysine-reactive dye IR800-NHS ester
notes: human GABAA receptor subunit β3 (GABRB3), full-length cDNA from the Harvard Plasmid Repository, subcloned into a Gateway-compatible pNKS2 vector; Positive control for homopentamer formation; also called human GABAA β3; human β3 receptor; source: Xenopus laevis oocytes, cRNA-injected; digitonin-solubilised, purified (Ni-NTA); not shown: His tag, C-terminal, kept
Take B1: the “stoichiometry N” value in data set [4] worked out at 5.

For orientation: EC50 means the concentration needed to bring the measured effect to its halfway point. The term stoichiometry N denotes the number of molecules, sites or subunits per partner or assembly. As usually defined, the IC50 is the concentration at which inhibition is half-maximal.
